# Literature values in patent EP2743282B1, “Melamine-aldehyde-condensation product and method obtaining the same” (Borealis Agrolinz Melamine GmbH, priority 2012, dated 2014).
# Settings: in water at 20 °C
row,SMILES,water solubility
1,"CNc1nc(NC)nc(N(C)C)n1 [N,N,N',N""-tetramethylmelamine, reference compound]",49000 µg/mL
2,"CN(C)c1nc(N)nc(N(C)C)n1 [N,N,N',N'-tetramethylmelamine]",400 µg/mL
3,"CN(C)c1nc(N)nc(N)n1 [N,N-dimethylmelamine]",1200 µg/mL
